Measured values published in patent publication US4428937A, “Antibacterial agents” (Beecham Group Limited, priority 1975, dated 1984).

Columns and labels:
[1] = system: Staphylococcus aureus Russell; experiment: In-vitro synergy: MIC of ampicillin in presence of sodium deoxyclavulanate; format: cell-based
Source text: (§1) The antibacterial and synergistic properties of sodium deoxyclavulanate are illustrated by the following in-vitro results: | Minimum Inhibitory Concentration | (μg/ml) of Ampicillin in Presence | of Various Concentrations of | Sodium Deoxyclavulanate (μg/ml) |Organism 0 1 5 20

Klebsiella aerogenes E70 = experiment: as above; format: cell-based
Source text: as §1

[2] = prior disclosures; cited from earlier work
β-lactamase = details: prior disclosures; cited from earlier work
[3] = Overt toxic effects in mice, intraperitoneal; format: in vivo; details: intra peritoneally, 500 mg/kg
[4] = system: Salmonella typhimurium CT10; experiment: In-vitro minimum inhibitory concentration; format: cell-based; details: Salmonella enterica
Source text: (§2) The antibacterial and synergistic properties of sodium deoxyclavulanate are illustrated by the following in-vitro results: | Minimum Inhibitory | Concentration of Sodium | Organism Deoxyclavulanate (μg/ml)

Staph. aureus Oxford = experiment: In-vitro minimum inhibitory concentration; format: cell-based; details: Staphylococcus aureus
Source text: as §2

Enterobacter cloacae N1 = experiment: In-vitro minimum inhibitory concentration; format: cell-based
Source text: as §2

[5] = system: Serratia marcescens US 39; experiment: In-vitro minimum inhibitory concentration; format: cell-based; details: US39
Source text: as §2

Proteus mirabilis C 977 = experiment: In-vitro minimum inhibitory concentration; format: cell-based; details: C977
Source text: as §2

Staph. aureus Russell = experiment: In-vitro minimum inhibitory concentration; format: cell-based; details: Staphylococcus aureus
Source text: as §2

Pseudomonas aeruginosa A = experiment: In-vitro minimum inhibitory concentration; format: cell-based
Source text: as §2

Bacillus subtilis A = experiment: In-vitro minimum inhibitory concentration; format: cell-based
Source text: as §2

Escherichia coli 10418 = experiment: In-vitro minimum inhibitory concentration; format: cell-based
Source text: as §2

Klebsiella aerogenes A = experiment: In-vitro minimum inhibitory concentration; format: cell-based
Source text: as §2

[6] = sodium deoxyclavulanate 0 μg/ml, read-out: Minimum Inhibitory Concentration of Ampicillin
[7] = sodium deoxyclavulanate 1 μg/ml
[8] = sodium deoxyclavulanate 5 μg/ml

CC1(C)S[C@@H]2[C@H](NC(=O)[C@H](N)c3ccccc3)C(=O)N2[C@H]1C(=O)O [Ampicillin]
MIC [1, 6]: 500 µg/mL
Minimum Inhibitory Concentration of Ampicillin in Presence of Sodium Deoxyclavulanate [1, 7]: 0.8 µg/mL
Minimum Inhibitory Concentration of Ampicillin in Presence of Sodium Deoxyclavulanate [1, 8]: 0.08 µg/mL
MIC (Klebsiella aerogenes E70; [6]): > 500 µg/mL
Minimum Inhibitory Concentration of Ampicillin in Presence of Sodium Deoxyclavulanate (Klebsiella aerogenes E70; [7]): 0.8 µg/mL
Minimum Inhibitory Concentration of Ampicillin in Presence of Sodium Deoxyclavulanate (Klebsiella aerogenes E70; [8]): 0.2 to 0.4 µg/mL

O=C(O)[C@H]1/C(=C\CO)O[C@@H]2CC(=O)N21 [Isoclavulanic acid, isoclavulanic acid]
anti-bacterial activity [2]: also have anti-bacterial
β-lactamase inhibitory activity (β-lactamase): β-lactamase inhibitory activity

C/C=C1\O[C@@H]2CC(=O)N2[C@H]1C(=O)O [Sodium deoxyclavulanate, Sodium Deoxyclavulanate]
Inhibition by sodium deoxyclavulanate alone ([1]; sodium deoxyclavulanate 20 μg/ml): Inhibition produced by sodium deoxyclavulanate alone
overt toxic effects [3]: did not appear to produce any overt toxic effects
MIC [4]: 125 µg/mL
MIC (Staph. aureus Oxford): 15.6 µg/mL
MIC (Enterobacter cloacae N1): 125 µg/mL
MIC [5]: 125 µg/mL
MIC (Proteus mirabilis C 977): 125 µg/mL
MIC (Staph. aureus Russell): 31 µg/mL
MIC (Pseudomonas aeruginosa A): 1000 µg/mL
MIC (Bacillus subtilis A): 62.5 µg/mL
MIC (Escherichia coli 10418): 62.5 µg/mL
MIC (Klebsiella aerogenes A): 62.5 µg/mL

O=C(O)[C@H]1/C(=C/CO)O[C@@H]2CC(=O)N21 [clavulanic acid]
anti-bacterial activity [2]: possess anti-bacterial
β-lactamase inhibitory activity (β-lactamase): β-lactamase inhibitory activity
